Tests used:
[1] = tested on: myelin water fraction (MWF); test: Random forest regression with feature selection for nutrients across ages; format: in vivo, human; conditions: listed in order of average importance after log Age
Excerpt: (§1) A linear model, like, was fitted to the dataset, all ages included, for each nutrient. Linear models with significant and positive coefficients for the nutrient intake terms were considered as indicative of a linear positive correlation with myelin. The myelin water fraction was Box Cox transformed to make it more symmetric. In addition, to account for possibly non-linear associations and for correlations between the nutrients, we performed a regression model using a random forest and used a feature selection algorithm for finding all relevant variables.
FIG. 2 compares the values of the transformed MWF with the values predicted by the random forest, on a test set.

myelination = conditions: potentially via a reduction in sialylated binding targets for the myelin associated glycoprotein; cited from earlier work
[2] = tested on: myelin water fraction (MWF); test: Linear model of myelin versus nutrient intake, all ages included; format: in vivo, human; conditions: for association with myelin levels in age-adjusted models across age windows: all ages, linear model; for nutIntake*logAge estimate / nutIntake estimate: linear model across ages, Box Cox transformed MWF; for nutIntake*logAge estimate: coefficient of the intake x log age interaction term; for nutIntake estimate: coefficient of the nutrient intake term
Protocol: The inventors have investigated the developmental dynamics of nutrient-myelin interactions from infancy to early childhood, using myelin imaging as a marker for brain maturation. Brain neuroimaging and infant nutritional intake information were analyzed from 293 children from a longitudinal cohort study in the US. A sliding window approach was used to investigate the relationship between the nutrient intake and brain region myelination over a continuous set of age windows.
For inclusion in the analysis of the present study, 293 children between 6 months and 60 months of age were selected who met the following criteria: 1. Singleton full-term (>37 weeks) pregnancy; 2. Uncomplicated pregnancy (i.e., no reports of pre-eclampsia, gestational hypertension or gestation diabetes mellitus, GDM); 3. No reports of abnormalities on fetal ultrasound; 4. Infant 5 minute APGAR scores ≥8; 5. Infant birth weight greater than 1500 g; 6. No reported history of neurological trauma in the child; 7. No reported sibling or parental psychiatric history, including autism; and 8. No reports of major depressive disorder requiring medication in the mother during pregnancy or in the 6 months prior to becoming pregnant. In addition, children had to have a successful MRI scan and time-matched nutrition intake information for at least one 24-hour period within a week of the MRI.
From the acquired mcDESPOT data, the myelin water fraction (MWF) was calculated using a processing pipeline that includes linear alignment of the SPGR, IR-SPGR, and bSSFP images to account for subtle intra-scan head movement, non-parenchyma voxel removal, and correction of flip angle errors and off-resonance inhomogeneities using DESPOT1-HIFI and DESPOT2-FM. A 3-pool tissue model was fit to the multi-angle SPGR and bSSFP data to estimate the MWF, a surrogate and non-invasive measure of myelin content. The MWF images (maps) were then non-linearly aligned to a common analysis space in approximate MNI space using a previously described multi-step approach that first aligns the subject's high flip angle T1 weighted SPGR image to one of 14 age-specific templates and then to an overall study-specific template using non-linear 3D deformation, ANTS. The calculated transformation matrices are then applied to the quantitative MWF maps.
Nutrient intake data was collected through the Automated Self-Administered 24-hour dietary assessment tool (ASA-24). The average daily nutrient intake per scan age was calculated, resulting in 293 observations with 88 nutrients. Values for amino acids and phospholipids, including sphingomyelin, were retrieved from the relevant United States Department of Agriculture (USDA) databases. The USDA choline database contains the values of free choline, glycerophosphocholine, phosphocholine, phosphatidylcholine and sphingomyelin for about 630 foods. […] The oligosaccharides 3′SL and 6′SL are only found in milk products, values of 114 and 23 mg/100 g were used for their respective concentrations in cow's milk. For the estimation of oligofructose, the inventors based their calculations on Moshfegh et al. J. Nutr. 1999; 129(7 Suppl): 1407s-11s. We then mapped the foods reported in ASA-24 to the corresponding items in the USDA database and calculated the daily totals.
as §1

Molecule: Phosphatidylinositol
- variables selected by the random forest model, sorted by average importance [1]: selected by the random forest model

Molecule: CC(=O)N[C@H]1[C@H]([C@H](O)[C@H](O)CO)O[C@@](OC[C@H]2O[C@@H](O[C@H]3[C@H](O)[C@@H](O)[C@H](O)O[C@@H]3CO)[C@H](O)[C@@H](O)[C@H]2O)(C(=O)O)C[C@@H]1O [6′SL, 6′-sialyllactose]
- impact on myelination in a preclinical study (myelination): impact myelination
- association with myelin levels in age-adjusted models across age windows [2]: linked with higher myelin levels
- nutIntake*logAge estimate [2]: −0.001
- nutIntake estimate [2]: 0.009

Molecule: CC1=C(/C=C/C(C)=C/C=C/C(C)=C/C=C/C=C(C)/C=C/C=C(C)/C=C/C2=C(C)CCCC2(C)C)C(C)(C)CCC1 [Carotene, beta]
- variables selected by the random forest model, sorted by average importance [1]: selected by the random forest model

Molecule: N[C@@H](CO)C(=O)O [Serine]
- variables selected by the random forest model, sorted by average importance [1]: selected by the random forest model

Molecule: [Ca+2] [Calcium]
- variables selected by the random forest model, sorted by average importance [1]: selected by the random forest model

Molecule: [P] [Phosphorus]
- variables selected by the random forest model, sorted by average importance [1]: selected by the random forest model

Molecule: Phosphatidylcholine
- variables selected by the random forest model, sorted by average importance [1]: selected by the random forest model

Molecule: Octadecadienoic acid [Octadecadienoic (Linoleic, 18:2)]
- variables selected by the random forest model, sorted by average importance [1]: selected by the random forest model

Molecule: Phosphatidylserine
- variables selected by the random forest model, sorted by average importance [1]: selected by the random forest model

Molecule: Sphingomyelin
- variables selected by the random forest model, sorted by average importance [1]: selected by the random forest model

Molecule: CC[C@H](C)[C@H](N)C(=O)O [Isoleucine]
- variables selected by the random forest model, sorted by average importance [1]: selected by the random forest model

Molecule: NCCCC[C@H](N)C(=O)O [Lysine]
- association with myelin levels in age-adjusted models across age windows [2]: linked with higher myelin levels
- nutIntake*logAge estimate [2]: −0.005
- nutIntake estimate [2]: 0.033

Molecule: CC(=O)N[C@H]1[C@H]([C@H](O)[C@H](O)CO)O[C@@](O[C@H]2[C@@H](O)[C@@H](CO)O[C@@H](O[C@H]3[C@H](O)[C@@H](O)C(O)O[C@@H]3CO)[C@@H]2O)(C(=O)O)C[C@@H]1O (stereo partly shown) [3′SL, 3′-sialyllactose]
- variables selected by the random forest model, sorted by average importance [1]: selected by the random forest model
- association with myelin levels in age-adjusted models across age windows [2]: linked with higher myelin levels
- nutIntake*logAge estimate [2]: 0.000
- nutIntake estimate [2]: 0.002

Molecule: CSCC[C@H](N)C(=O)O [Methionine]
- variables selected by the random forest model, sorted by average importance [1]: selected by the random forest model

B1: α-lactalbumin: whey protein of 123 amino acids and 4 disulfide bridges, molecular weight 14.2K Daltons (protein, UniProt P00711 20-142, looked up)
Alpha-lactalbumin: EQLTKCEVFRELKDLKGYGGVSLPEWVCTTFHTSGYDTQAIVQNNDSTEYGLFQINNKIWCKDDQNPHSSNICNISCDKFLDDDLTDDIMCVKKILDKVGINYWLAHKALCSEKLDQWLCEKL
- association with myelin levels in age-adjusted models across age windows [2]: linked with higher myelin levels
- nutIntake*logAge estimate [2]: −0.014
- nutIntake estimate [2]: 0.097

Source: patent publication US20260151367A1, “KIT TO PROMOTE DEVELOPMENTAL MYELINATION” (SOCIÉTÉ DES PRODUITS NESTLÉ S.A., priority 2022, published 2026)
